Measurements taken from patent US11225470B2, “Tetrazolinone compounds and its use as pest control agents” (SUMITOMO CHEMICAL COMPANY, LIMITED, priority 2016, dated 2022).

Tested on: tomato early blight fungi (Alternaria solani; QoI resistant strain, cytochrome b phenylalanine 129 mutated to leucine)
Type: in vivo
Conditions: 200 ppm foliar spray, inoculation after 1 day; tomato cv PATIO

Question: How did the “lesion area compared to the lesion area in an untreated tomato” value turn out when `CCC(=NN=C(C)c1ccc2ccccc2c1)OCc1c(C)cccc1-n1nnn(C)c1=O` [cf1] was run?
Answer: The value was ≥ 70%.
